Measurements reported in PubChem BioAssay AID330 (DTP/NCI, 2004).
Several values for one entry are separate records, joined by “and”; a condition that tells them apart may be missing. Equal values may be shown once. Toxic doses and inconclusive results are not listed. How the source made its calls: active means survival T/C of 150% or more; inactive means T/C below 125% in these data. Peptide text beside a SMILES is read from it. * marks the point of attachment. Boc = CC(C)(C)OC(=O)*; NHNH2 = NN*

System: P388 leukemia ip, CD2F1 mice, survival T/C
Test: NCI In Vivo Anticancer Drug Screen. Data for tumor model P388 Leukemia (intraperitoneal) in CD2F1 (CDF1) mice
Details: endpoint: median survival time, higher = longer survival
Procedure, shortened: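 Mice carrying the transplanted tumor received test compound or vehicle. Survival was recorded in each group, and the value is the treated-group measurement divided by that of the vehicle-treated control group.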

[1] = dose: 50.0 mg/kg/injection, schedule: Q01DX005 (ip), vehicle: Klucel (hydroxypropylcellulose) (HPC)
[2] = dose: 100.0 mg/kg/injection, schedule: Q01DX005 (ip), vehicle: Klucel (hydroxypropylcellulose) (HPC)
[3] = dose: 200.0 mg/kg/injection, schedule: Q01DX005 (ip), vehicle: Klucel (hydroxypropylcellulose) (HPC)
[4] = dose: 60.0 mg/kg/injection, schedule: Q01DX005 (ip), vehicle: saline with Tween-80
[5] = dose: 12.5 mg/kg/injection, schedule: Q04DX003 (ip), vehicle: Klucel (hydroxypropylcellulose) (HPC)
[6] = dose: 25.0 mg/kg/injection, schedule: Q04DX003 (ip), vehicle: Klucel (hydroxypropylcellulose) (HPC)
[7] = dose: 50.0 mg/kg/injection, schedule: Q01DX009 (ip), vehicle: Klucel (hydroxypropylcellulose) (HPC)
[8] = dose: 100.0 mg/kg/injection, schedule: Q01DX009 (ip), vehicle: Klucel (hydroxypropylcellulose) (HPC)
[9] = dose: 200.0 mg/kg/injection, schedule: Q01DX009 (ip), vehicle: Klucel (hydroxypropylcellulose) (HPC)
[10] = dose: 50.0 mg/kg/injection, schedule: Q01DX009 (ip), vehicle: saline with Tween-80
[11] = dose: 100.0 mg/kg/injection, schedule: Q01DX009 (ip), vehicle: saline with Tween-80
[12] = dose: 200.0 mg/kg/injection, schedule: Q01DX009 (ip), vehicle: saline with Tween-80
[13] = dose: 50.0 mg/kg/injection, schedule: Q01DX009 (ip), vehicle: saline
[14] = dose: 100.0 mg/kg/injection, schedule: Q01DX009 (ip), vehicle: saline
[15] = dose: 200.0 mg/kg/injection, schedule: Q01DX009 (ip), vehicle: saline
[16] = dose: 60.0 mg/kg/injection, schedule: Q01DX005 (ip), vehicle: Klucel (hydroxypropylcellulose) (HPC)
[17] = dose: 120.0 mg/kg/injection, schedule: Q01DX005 (ip), vehicle: Klucel (hydroxypropylcellulose) (HPC)
[18] = dose: 240.0 mg/kg/injection, schedule: Q01DX005 (ip), vehicle: Klucel (hydroxypropylcellulose) (HPC)
[19] = dose: 12.5 mg/kg/injection, schedule: Q01DX009 (ip), vehicle: saline with Tween-80
[20] = dose: 25.0 mg/kg/injection, schedule: Q01DX009 (ip), vehicle: saline with Tween-80

Measured: T/C

CSC(=C[N+](=O)[O-])SC
inactive: dose: 3.13 mg/kg/injection, schedule: Q01DX009 (ip), vehicle: water 100 % of control | dose: 6.25 mg/kg/injection, schedule: Q01DX009 (ip), vehicle: water 105 % of control | dose: 12.5 mg/kg/injection, schedule: Q01DX009 (ip), vehicle: water 96 % of control | dose: 25.0 mg/kg/injection, schedule: Q01DX009 (ip), vehicle: water 104 % of control

CC(C)C(NC(=O)C(Cc1c[nH]c2ccccc12)NC(=O)OC(C)(C)C)C(=O)NN (stereo not drawn) (Boc-Trp-Val-NHNH2; configuration not given here)
inactive: dose: 12.5 mg/kg/injection, schedule: Q01DX009 (ip), vehicle: other 98 % of control | dose: 25.0 mg/kg/injection, schedule: Q01DX009 (ip), vehicle: other 98 % of control | dose: 50.0 mg/kg/injection, schedule: Q01DX009 (ip), vehicle: other 91 % of control | dose: 100.0 mg/kg/injection, schedule: Q01DX009 (ip), vehicle: other 89 % of control | dose: 200.0 mg/kg/injection, schedule: Q01DX009 (ip), vehicle: other 94 % of control

O=c1oc2cc(Cl)cnc2n1-c1ccccc1
inactive: dose: 100.0 mg/kg/injection, schedule: Q01DX001 (ip), vehicle: Klucel (hydroxypropylcellulose) (HPC) 96 % of control | dose: 200.0 mg/kg/injection, schedule: Q01DX001 (ip), vehicle: Klucel (hydroxypropylcellulose) (HPC) 98 % of control | dose: 400.0 mg/kg/injection, schedule: Q01DX001 (ip), vehicle: Klucel (hydroxypropylcellulose) (HPC) 90 % of control

Cc1cc(Cl)c2c(c1N)C(=O)c1ccccc1C2=O
inactive: [1] 97 % of control | [2] 96 % of control | [3] 98 % of control

COc1cc(C2CC(C)(O)Oc3cc4c(cc32)OCO4)cc(OC)c1OC (centres undefined)
inactive: dose: 30.0 mg/kg/injection, schedule: Q01DX005 (ip), vehicle: saline with Tween-80 104 % of control | [4] 105 % of control and 108 % of control

O=[N+]([O-])c1csc([N+](=O)[O-])c1
inactive: dose: 9.37 mg/kg/injection, schedule: Q01DX009 (ip), vehicle: saline with Tween-80 109 % of control | dose: 18.75 mg/kg/injection, schedule: Q01DX009 (ip), vehicle: saline with Tween-80 118 % of control | dose: 37.5 mg/kg/injection, schedule: Q01DX009 (ip), vehicle: saline with Tween-80 122 % of control | dose: 75.0 mg/kg/injection, schedule: Q04DX003 (ip), vehicle: saline with Tween-80 100 % of control | dose: 150.0 mg/kg/injection, schedule: Q04DX003 (ip), vehicle: saline with Tween-80 100 % of control | dose: 300.0 mg/kg/injection, schedule: Q04DX003 (ip), vehicle: saline with Tween-80 109 % of control

CCN(CC)CCOCC(=O)Nc1c(C)cccc1Cl
inactive: dose: 50.0 mg/kg/injection, schedule: Q04DX003 (ip), vehicle: saline 102 % of control and 113 % of control and 96 % of control | dose: 100.0 mg/kg/injection, schedule: Q04DX003 (ip), vehicle: saline 100 % of control and 101 % of control and 120 % of control | dose: 200.0 mg/kg/injection, schedule: Q04DX003 (ip), vehicle: saline 88 % of control and 92 % of control and 95 % of control

CC(C)=NNC(N)=S
inactive: [5] 93 % of control | [6] 100 % of control

COc1ccc(CC(C#N)c2ccc(Cl)cc2)cc1 (centres undefined)
inactive: [7] 107 % of control | [8] 101 % of control | [9] 98 % of control | dose: 400.0 mg/kg/injection, schedule: Q01DX009 (ip), vehicle: Klucel (hydroxypropylcellulose) (HPC) 98 % of control

O=C(Nc1ccc(Cl)cc1)SC1=NCC(=O)N1c1ccccc1
inactive: dose: 0.78 mg/kg/injection, schedule: Q01DX005 (ip), vehicle: saline with Tween-80 101 % of control | dose: 1.56 mg/kg/injection, schedule: Q01DX005 (ip), vehicle: saline with Tween-80 102 % of control | dose: 3.13 mg/kg/injection, schedule: Q01DX005 (ip), vehicle: saline with Tween-80 98 % of control and 94 % of control | dose: 6.25 mg/kg/injection, schedule: Q01DX005 (ip), vehicle: saline with Tween-80 94 % of control | dose: 25.0 mg/kg/injection, schedule: Q01DX005 (ip), vehicle: saline with Tween-80 89 % of control | dose: 100.0 mg/kg/injection, schedule: Q01DX005 (ip), vehicle: saline with Tween-80 88 % of control | dose: 200.0 mg/kg/injection, schedule: Q01DX005 (ip), vehicle: saline with Tween-80 92 % of control

CN(C)c1cc[n+](-c2c([O-])c3ccccc3n(-c3ccccc3)c2=O)cc1
inactive: [1] 107 % of control | [2] 104 % of control | [3] 97 % of control

O=C(NC(=O)Nc1ccc(Cl)cc1)NC(=O)c1ccccc1F
inactive: [10] 114 % of control | [11] 101 % of control | [12] 95 % of control

CC/C=C(\CC)C(=O)O
inactive: [13] 90 % of control | [14] 100 % of control | [15] 102 % of control

OCC1OC(n2cnc3c(SCc4ccccn4)ncnc32)C(O)C1O (centres undefined)
inactive: dose: 12.5 mg/kg/injection, schedule: Q04DX003 (ip), vehicle: saline with Tween-80 109 % of control | dose: 25.0 mg/kg/injection, schedule: Q04DX003 (ip), vehicle: saline with Tween-80 96 % of control | dose: 50.0 mg/kg/injection, schedule: Q04DX003 (ip), vehicle: saline with Tween-80 99 % of control | dose: 100.0 mg/kg/injection, schedule: Q04DX003 (ip), vehicle: saline with Tween-80 96 % of control

CCNC(=O)n1cccc(OC)c1=O
inactive: [13] 101 % of control and 107 % of control | [14] 109 % of control and 114 % of control and 119 % of control | [15] 111 % of control and 116 % of control | dose: 300.0 mg/kg/injection, schedule: Q01DX009 (ip), vehicle: saline 109 % of control

CCN(CC)CCCC(C)Nc1nccc2cccc(Cl)c12 (centres undefined)
inactive: dose: 50.0 mg/kg/injection, schedule: Q01DX005 (ip), vehicle: saline 104 % of control | dose: 100.0 mg/kg/injection, schedule: Q01DX005 (ip), vehicle: saline 104 % of control

CC1(C)SC(C)(c2ccc[nH]2)N(c2nccs2)C1=O (centres undefined)
inactive: [16] 106 % of control | [17] 104 % of control | [18] 102 % of control

CN1CCCC2c3ccccc3CCC21 (centres undefined)
inactive: [5] 104 % of control | [6] 101 % of control

CC(C)=CC(=O)C1=C(O)C(=O)OC1
inactive: [10] 109 % of control | [11] 108 % of control | [12] 107 % of control

CCOC(=O)/C(C#N)=N/Nc1ccc(S(=O)(=O)NC(C)=O)cc1
inactive: [1] 96 % of control | [2] 92 % of control | [3] 96 % of control

OCCCOc1ccc(OCCCO)cc1
inactive: [16] 100 % of control | [17] 99 % of control | [18] 103 % of control

N#CCCN(CCC#N)P(=O)(N(CCC#N)CCC#N)N(CCC#N)CCC#N
inactive: [1] 100 % of control | [2] 96 % of control | [3] 100 % of control

COc1cc(/C=C/c2cccs2)oc(=O)c1
inactive: [7] 103 % of control | [8] 103 % of control | [9] 103 % of control

O=S(=O)(O)c1cc(O)c2c(N=Cc3ccccc3O)c(S(=O)(=O)O)ccc2c1
inactive: [4] 98 % of control | dose: 120.0 mg/kg/injection, schedule: Q01DX005 (ip), vehicle: saline with Tween-80 97 % of control | dose: 240.0 mg/kg/injection, schedule: Q01DX005 (ip), vehicle: saline with Tween-80 95 % of control

c1ccc(-c2nc3ccccc3nc2-c2ccc(-c3ccc(-c4nc5ccccc5nc4-c4ccccc4)cc3)cc2)cc1
inactive: dose: 6.25 mg/kg/injection, schedule: Q01DX009 (ip), vehicle: saline with Tween-80 88 % of control and 96 % of control | [19] 101 % of control and 90 % of control | [20] 99 % of control and 120 % of control and 92 % of control | [10] 114 % of control and 87 % of control

CCOC(=O)C1(COS(=O)(=O)c2ccc(C)cc2)C(=O)Nc2ccccc21 (centres undefined)
inactive: [7] 100 % of control | [8] 100 % of control | [9] 97 % of control

C(=C(Sc1ccccc1)Sc1ccccc1)C(Sc1ccccc1)c1ccccc1 (centres undefined)
inactive: [7] 93 % of control | [8] 96 % of control | [9] 90 % of control

COC(=O)c1cc2cc3c(c(O)c2c(=O)o1)OC1(Cc2c(O)c4c(c(O)c2O1)C(=O)C(OC)CC4=O)CC3O (centres undefined)
inactive: [19] 93 % of control | [20] 100 % of control | [10] 116 % of control
